ChEMBL document CHEMBL3632553, “New fluorinated agonists for targeting the sphingosin-1-phosphate receptor 1 (S1P(1))” (2015)
Active and inactive are the calls of the source. The rule behind the calls is not given here.

Columns and labels:
[1] = biological target: Sphingosine 1-phosphate receptor 1 (Homo sapiens) (UniProt P21453); experiment: Agonist activity at human sphingosin-1-phosphate receptor 1 expressed in CHO cells assessed as phosphorylation status of p44/42 MAPK after 5 mins by Western blotting; assay type: cell-based
Chain of Sphingosine 1-phosphate receptor 1 (Homo sapiens) (P21453 whole entry): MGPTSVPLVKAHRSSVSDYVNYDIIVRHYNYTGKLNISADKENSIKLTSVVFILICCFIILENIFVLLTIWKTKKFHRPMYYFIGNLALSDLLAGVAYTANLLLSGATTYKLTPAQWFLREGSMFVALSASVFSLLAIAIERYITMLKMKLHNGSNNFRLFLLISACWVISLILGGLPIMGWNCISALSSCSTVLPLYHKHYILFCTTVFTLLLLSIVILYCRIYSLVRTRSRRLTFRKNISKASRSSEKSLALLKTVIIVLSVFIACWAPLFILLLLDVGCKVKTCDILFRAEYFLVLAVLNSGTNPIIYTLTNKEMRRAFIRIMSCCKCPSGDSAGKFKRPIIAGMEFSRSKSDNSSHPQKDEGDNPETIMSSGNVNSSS

[2] = biological target: Sphingosine 1-phosphate receptor 1 (Homo sapiens) (UniProt P21453); experiment: Agonist activity at human sphingosin-1-phosphate receptor 1 expressed in CHO cells assessed as phosphorylation status of p44/42 MAPK after 2.5 mins by Western blotting; assay type: cell-based
[3] = biological target: Sphingosine 1-phosphate receptor 1 (Homo sapiens) (UniProt P21453); experiment: Agonist activity at human sphingosin-1-phosphate receptor 1 expressed in CHO cells assessed as phosphorylation status of p44/42 MAPK after 10 mins by Western blotting; assay type: cell-based
Mus musculus [4] = experiment: Immunosuppressive activity in mouse assessed as induction of lymphopenia at 1.25 mg/kg, ip after 24 hrs by flow cytometry; assay type: functional
Mus musculus [5] = experiment: Immunosuppressive activity in mouse assessed as reduction of CD8+ level in peripheral blood assessed per 10^6 cells at 1.25 mg/kg, ip after 24 hrs by flow cytometry (reference value: 0.48 +/- 0.05 ml); assay type: functional
Mus musculus [6] = experiment: Immunosuppressive activity in mouse assessed as reduction of WBC level in peripheral blood assessed per 10^6 cells at 1.25 mg/kg, ip after 24 hrs by flow cytometry (reference value: 8.94 +/- 0.59 ml); assay type: functional
Mus musculus [7] = experiment: Immunosuppressive activity in mouse assessed as reduction of CD4+ level in peripheral blood assessed per 10^6 cells at 1.25 mg/kg, ip after 24 hrs by flow cytometry (reference value: 0.73 +/- 0.07 ml); assay type: functional
Mus musculus [8] = experiment: Immunosuppressive activity in mouse assessed as reduction of B-cells level in peripheral blood assessed per 10^6 cells at 1.25 mg/kg, ip after 24 hrs by flow cytometry (reference value: 4.72 +/- 0.53 ml); assay type: functional

Row | SMILES | Activity [1] | Activity [2] | Activity [3] | Activity (Mus musculus [4]) | cell count (Mus musculus [5]) | cell count (Mus musculus [6]) | cell count (Mus musculus [7]) | cell count (Mus musculus [8])
1 | NC(CO)(CO)CCCCCCCCCCCCCCC(F)F | Active | Active | Active | 95% | 0.04 10^6 cells/mL | 1.67 10^6 cells/mL | 0.03 10^6 cells/mL | 0.29 10^6 cells/mL
2 | NC(CO)(CO)CCCCCCCCCCc1c(F)c(F)c(F)c(F)c1F | Active | Active | Active | – | – | – | – | –
3 | CCCCCCCCc1ccc(CCC(N)(CO)CO)cc1 [FINGOLIMOD] | – | – | – | 97% | 0.04 10^6 cells/mL | 3.69 10^6 cells/mL | 0.02 10^6 cells/mL | 0.61 10^6 cells/mL
4 | NC(CO)(CO)CCCCCCCCCCc1cccc(S(F)(F)(F)(F)F)c1 | Active | Active | Active | – | – | – | – | –

More lines, main results first:

Row | Activity [1] | Activity [2] | Activity [3] | SMILES | Activity (Mus musculus [4]) | cell count (Mus musculus [5]) | cell count (Mus musculus [6]) | cell count (Mus musculus [7]) | cell count (Mus musculus [8])
5 | Active | Active | Active | NC(CO)(CO)CCCCCCCCCCc1ccc(C(F)(F)F)cc1 | – | – | – | – | –
6 | Active | Active | Active | NC(CO)(CO)CCCCCCCCCCc1ccc(F)cc1 | – | – | – | – | –
7 | Active | Active | Active | NC(CO)(CO)CCCCCCCCCCc1ccc(S(F)(F)(F)(F)F)cc1 | – | – | – | – | –
8 | Active | Active | Active | NC(CO)(CO)CCCCCCCCCCc1ccccc1 | – | – | – | – | –
